Read-outs that look alike come from different tables or passages of the source.
Assays:
[1] = system: 6 Hz (32 mA) seizures, mice; test: 6 Hz (32 mA) psychomotor seizure test; assay type: in vivo; conditions: Mus musculus, ip, 100 mg/kg i.p., 0.5 h;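 further: compounds given as one i.p. dose suspended in 1% aqueous Tween 80, with the 6 Hz (32 mA) model considered to reflect focal epilepsy in humans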
Text: (§1) Both the aforementioned parameters (ED50 and TD50) enabled the calculation of protective indexes (PIs), which reflect the comparative the benefit–risk ratio of these experimental therapeutic agents.
(§2) Four mice per group were randomly assigned to each experimental group in the initial screening experiments (each mouse was used just once). Four groups, each with eight animals, received injections of different doses of the investigated substances in order to determine the ED50 or TD50 values. The PIs for the compounds investigated and reference ASMs were calculated by dividing the TD50 value, as determined in the chimney test by the respective ED50 value, as determined in the MES, scPTZ, or 6 Hz (32 mA or 44 mA) tests (PI = TD50/ED50). The PIs are a measure of the potential therapeutic window of the tested agent.
(§3) All substances were suspended in Tween 80 (1% aqueous solution) and administered i.p. as a single injection at a volume of 10 mL/kg. On each day of experimentation, fresh solutions were prepared.

[2] = system: maximal electroshock (MES) seizures, mice; test: maximal electroshock (MES) seizure test; assay type: in vivo; conditions: Mus musculus, ip; 100 mg/kg i.p., 0.5 h, mice; read-out: MES: number of mice protected/number of mice tested (converted)
Text: as §1, §2, §3

[3] = molecular target: T1, TRPV1 (VR1) (h) (Homo sapiens, UniProt Q8NER1); test: TRPV1 (VR1) (h) (antagonist effect); assay type: cell-based; conditions: 100 µM, human recombinant CHO cells; read-out: % Inhibition of control agonist response
T1 construct: host or cells: CHO cells
Procedure: Further in vitro functional studies confirmed TRPV1 antagonist activity for (R)-31–(R)-33.
Using previously described testing methodologies, binding/functional tests were conducted on a commercial basis at Eurofins Laboratories (Poitiers, France) and Eurofins Panlabs Discovery Services Taiwan, Ltd. (New Taipei City, Taiwan); see Table S9 for more information.
Table S9. Radioligand binding and functional assays. […]
TRPV1 (VR1) (h) (antagonist effect) […]
Assays were performed commercially in Eurofins Laboratories (Poitiers, France) or Eurofins Panlabs Discovery Services
Taiwan, Ltd. (New Taipei City, Taiwan).

[4] = four mice, read-out: protection in the 6 Hz (32 mA) test
[5] = mice, read-out: 6 Hz (32 mA): number of mice protected/number of mice tested (converted)

T1 sequence (Q8NER1 whole entry): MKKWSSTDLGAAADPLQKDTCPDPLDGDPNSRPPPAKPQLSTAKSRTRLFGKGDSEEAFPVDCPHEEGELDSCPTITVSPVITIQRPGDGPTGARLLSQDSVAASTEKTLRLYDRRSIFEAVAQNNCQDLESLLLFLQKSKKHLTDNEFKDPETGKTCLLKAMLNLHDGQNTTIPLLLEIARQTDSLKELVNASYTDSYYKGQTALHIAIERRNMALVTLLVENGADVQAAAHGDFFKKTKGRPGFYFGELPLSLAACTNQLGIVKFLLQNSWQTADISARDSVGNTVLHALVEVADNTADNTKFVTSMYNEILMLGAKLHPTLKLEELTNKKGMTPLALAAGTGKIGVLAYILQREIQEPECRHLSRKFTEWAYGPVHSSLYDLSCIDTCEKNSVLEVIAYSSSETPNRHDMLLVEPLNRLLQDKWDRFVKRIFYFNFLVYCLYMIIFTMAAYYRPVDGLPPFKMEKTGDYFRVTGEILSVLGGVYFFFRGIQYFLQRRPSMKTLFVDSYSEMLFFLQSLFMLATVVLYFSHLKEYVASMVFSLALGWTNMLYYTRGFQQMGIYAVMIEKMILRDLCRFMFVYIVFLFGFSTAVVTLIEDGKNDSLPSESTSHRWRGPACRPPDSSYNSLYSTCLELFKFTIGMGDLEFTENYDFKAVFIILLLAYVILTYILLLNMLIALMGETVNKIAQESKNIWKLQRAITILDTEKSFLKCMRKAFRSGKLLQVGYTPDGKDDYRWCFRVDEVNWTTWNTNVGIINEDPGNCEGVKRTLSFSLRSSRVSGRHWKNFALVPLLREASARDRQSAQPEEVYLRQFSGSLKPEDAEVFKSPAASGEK

CC(=O)N[C@H](C(=O)N1CCN(c2cccc(C(F)(F)F)c2)CC1)c1ccccc1 [(S)-31, (S)-N-(2-Oxo-1-phenyl-2-(4-(3-(trifluoromethyl)phenyl)piperazin-1-yl)ethyl)acetamide]
responders at 100 mg/kg [1, 4]: 50% | responders at 100 mg/kg [1, 5]: 50% | responders at 100 mg/kg [2]: 25% | melting point: 109.8 to 110.6 °C

CC(=O)NC(C(=O)NC1CCN(c2ccccc2)C1)c1ccccc1 (centres unmarked) [Compound 21, 2-Acetamido-2-phenyl-N-(1-phenylpyrrolidin-3-yl)acetamide]
responders at 100 mg/kg [1, 5]: 0% | responders at 100 mg/kg [2]: 0% | inhibition at 100 µM [3]: 4.2% | melting point: 189.7 to 190.5 °C

O=C(NC(C(=O)N1CCN(c2cccc(C(F)(F)F)c2)CC1)c1ccccc1)c1ccccc1Cl (centres unmarked) [Compound 4, 2-Chloro-N-(2-oxo-1-phenyl-2-(4-(3-(trifluoromethyl)phenyl)piperazin-1-yl)ethyl) Benzamide]
responders at 100 mg/kg [1, 5]: 0% | responders at 100 mg/kg [2]: 0% | inhibition at 100 µM [3]: 14.4% | melting point: 134.8 to 135.9 °C

O=C(NC(C(=O)N1CCN(c2cccc(C(F)(F)F)c2)CC1)c1ccccc1)c1ccccc1 (centres unmarked) [Compound 3, N-(2-Oxo-1-phenyl-2-(4-(3-(trifluoromethyl)phenyl)piperazin-1-yl)ethyl)benzamide]
responders at 100 mg/kg [1, 4]: 50% | responders at 100 mg/kg [1, 5]: 50% | responders at 100 mg/kg [2]: 0% | inhibition at 100 µM [3]: 11.4% | melting point: 140.9 to 141.2 °C

O=C(NC(C(=O)N1CCN(c2cccc(C(F)(F)F)c2)CC1)c1ccccc1)c1cccc(C(F)(F)F)c1 (centres unmarked) [Compound 8, N-(2-Oxo-1-phenyl-2-(4-(3-(trifluoromethyl)phenyl)piperazin-1-yl)ethyl)-3-(trifluoromethyl)benzamide]
responders at 100 mg/kg [1, 5]: 0% | responders at 100 mg/kg [2]: 0% | inhibition at 100 µM [3]: -6.1% | melting point: 143.2 to 144.1 °C

O=C(NC(C(=O)N1CCN(c2cccc(C(F)(F)F)c2)CC1)c1ccccc1)c1ccc(Cl)cc1 (centres unmarked) [Compound 6, 4-Chloro-N-(2-oxo-1-phenyl-2-(4-(3-(trifluoromethyl)phenyl)piperazin-1-yl)ethyl) Benzamide]
responders at 100 mg/kg [1, 4]: 25% | responders at 100 mg/kg [1, 5]: 25% | responders at 100 mg/kg [2]: 0% | inhibition at 100 µM [3]: 6.8% | melting point: 165.2 to 166.7 °C

CC(=O)N[C@H](C(=O)N1CCN(c2cccc(OC(F)(F)F)c2)CC1)c1ccccc1 [(S)-32, (S)-N-(2-Oxo-1-phenyl-2-(4-(3-(trifluoromethoxy)phenyl)piperazin-1-yl)ethyl)acetamide]
responders at 100 mg/kg [1, 4]: 75% | responders at 100 mg/kg [1, 5]: 75% | responders at 100 mg/kg [2]: 25%

O=C(NC(C(=O)N1CCN(c2cccc(C(F)(F)F)c2)CC1)c1ccccc1)c1cc(C(F)(F)F)ccn1 (centres unmarked) [Compound 11, N-(2-Oxo-1-phenyl-2-(4-(3-(trifluoromethyl)phenyl)piperazin-1-yl)ethyl)-4-(trifluoromethyl)picolinamide]
responders at 100 mg/kg [1, 5]: 50% | responders at 100 mg/kg [2]: 0% | inhibition at 100 µM [3]: -4.2% | melting point: 101.2 to 102.4 °C

O=C(NC(C(=O)N1CCN(c2cccc(C(F)(F)F)c2)CC1)c1ccccc1)c1ccc(C(F)(F)F)cn1 (centres unmarked) [Compound 12, N-(2-Oxo-1-phenyl-2-(4-(3-(trifluoromethyl)phenyl)piperazin-1-yl)ethyl)-5-(trifluoromethyl)picolinamide]
responders at 100 mg/kg [1, 5]: 50% | responders at 100 mg/kg [2]: 0% | inhibition at 100 µM [3]: -1.2% | melting point: 146.5 to 147.2 °C

CC(=O)NC(C(=O)NC1CCN(c2cccc(OC(F)(F)F)c2)C1)c1ccccc1 (centres unmarked) [Compound 23, 2-Acetamido-2-phenyl-N-(1-(3-(trifluoromethoxy)phenyl)pyrrolidin-3-yl)acetamide]
responders at 100 mg/kg [1, 4]: 50% | responders at 100 mg/kg [1, 5]: 50% | responders at 100 mg/kg [2]: 0% | inhibition at 100 µM [3]: -2.7% | melting point: 173.1 to 174.2 °C

CC(=O)NC(C(=O)NC1CCN(c2cccc(SC(F)(F)F)c2)C1)c1ccccc1 (centres unmarked) [Compound 24, 2-Acetamido-2-phenyl-N-(1-(3-((trifluoromethyl)thio)phenyl)pyrrolidin-3-yl)acetamide]
responders at 100 mg/kg [1, 4]: 25% | responders at 100 mg/kg [1, 5]: 25% | responders at 100 mg/kg [2]: 0% | inhibition at 100 µM [3]: 1.3% | melting point: 168.8 to 169.7 °C

O=C(NC(C(=O)N1CCN(c2cccc(C(F)(F)F)c2)CC1)c1ccccc1)c1ccccc1C(F)(F)F (centres unmarked) [Compound 7, N-(2-Oxo-1-phenyl-2-(4-(3-(trifluoromethyl)phenyl)piperazin-1-yl)ethyl)-2 (trifluoromethyl)benzamide]
responders at 100 mg/kg [1, 5]: 0% | responders at 100 mg/kg [2]: 0% | inhibition at 100 µM [3]: -2.6% | melting point: 165.2 to 166.7 °C

O=C(NC(C(=O)N1CCN(c2cccc(C(F)(F)F)c2)CC1)c1ccccc1)c1cccc(Cl)c1 (centres unmarked) [Compound 5, 3-Chloro-N-(2-oxo-1-phenyl-2-(4-(3-(trifluoromethyl)phenyl)piperazin-1-yl)ethyl) Benzamide]
responders at 100 mg/kg [1, 4]: 50% | responders at 100 mg/kg [1, 5]: 50% | responders at 100 mg/kg [2]: 0% | inhibition at 100 µM [3]: 3.8% | melting point: 151.7 to 152.4 °C

CC(=O)NC(C(=O)NC1CCN(c2cccc(C(F)(F)F)c2)C1)c1ccccc1 (centres unmarked) [Compound 22, 2-Acetamido-2-phenyl-N-(1-(3-(trifluoromethyl)phenyl)pyrrolidin-3-yl)acetamide]
responders at 100 mg/kg [1, 4]: 50% | responders at 100 mg/kg [1, 5]: 50% | responders at 100 mg/kg [2]: 0% | inhibition at 100 µM [3]: -8.4% | melting point: 203.7 to 204.4 °C

O=C(NC(C(=O)N1CCN(c2cccc(C(F)(F)F)c2)CC1)c1ccccc1)c1ncccc1C(F)(F)F (centres unmarked) [Compound 10, N-(2-Oxo-1-phenyl-2-(4-(3-(trifluoromethyl)phenyl)piperazin-1-yl)ethyl)-3-(trifluoromethyl)picolinamide]
responders at 100 mg/kg [1, 5]: 50% | responders at 100 mg/kg [2]: 0% | inhibition at 100 µM [3]: -3.5%

CC(=O)N[C@H](C(=O)N1CCN(c2cccc(SC(F)(F)F)c2)CC1)c1ccccc1 [(S)-33, (S)-N-(2-Oxo-1-phenyl-2-(4-(3-((trifluoromethyl)thio)phenyl)piperazin-1-yl)ethyl)acetamide]
responders at 100 mg/kg [1, 4]: 75% | responders at 100 mg/kg [1, 5]: 75% | responders at 100 mg/kg [2]: 25%

O=C(NC(C(=O)N1CCN(c2cccc(C(F)(F)F)c2)CC1)c1ccccc1)c1ccc(C(F)(F)F)cc1 (centres unmarked) [Compound 9, N-(2-Oxo-1-phenyl-2-(4-(3-(trifluoromethyl)phenyl)piperazin-1-yl)ethyl)-4-(trifluoromethyl) Benzamide]
responders at 100 mg/kg [1, 5]: 0% | responders at 100 mg/kg [2]: 0% | inhibition at 100 µM [3]: 6.2% | melting point: 103.4 to 104.2 °C
